Assay [1] concerns the target T1, Son of sevenless homolog 1 (Homo sapiens, UniProt Q07889).
T1 sequence (Q07889 whole entry): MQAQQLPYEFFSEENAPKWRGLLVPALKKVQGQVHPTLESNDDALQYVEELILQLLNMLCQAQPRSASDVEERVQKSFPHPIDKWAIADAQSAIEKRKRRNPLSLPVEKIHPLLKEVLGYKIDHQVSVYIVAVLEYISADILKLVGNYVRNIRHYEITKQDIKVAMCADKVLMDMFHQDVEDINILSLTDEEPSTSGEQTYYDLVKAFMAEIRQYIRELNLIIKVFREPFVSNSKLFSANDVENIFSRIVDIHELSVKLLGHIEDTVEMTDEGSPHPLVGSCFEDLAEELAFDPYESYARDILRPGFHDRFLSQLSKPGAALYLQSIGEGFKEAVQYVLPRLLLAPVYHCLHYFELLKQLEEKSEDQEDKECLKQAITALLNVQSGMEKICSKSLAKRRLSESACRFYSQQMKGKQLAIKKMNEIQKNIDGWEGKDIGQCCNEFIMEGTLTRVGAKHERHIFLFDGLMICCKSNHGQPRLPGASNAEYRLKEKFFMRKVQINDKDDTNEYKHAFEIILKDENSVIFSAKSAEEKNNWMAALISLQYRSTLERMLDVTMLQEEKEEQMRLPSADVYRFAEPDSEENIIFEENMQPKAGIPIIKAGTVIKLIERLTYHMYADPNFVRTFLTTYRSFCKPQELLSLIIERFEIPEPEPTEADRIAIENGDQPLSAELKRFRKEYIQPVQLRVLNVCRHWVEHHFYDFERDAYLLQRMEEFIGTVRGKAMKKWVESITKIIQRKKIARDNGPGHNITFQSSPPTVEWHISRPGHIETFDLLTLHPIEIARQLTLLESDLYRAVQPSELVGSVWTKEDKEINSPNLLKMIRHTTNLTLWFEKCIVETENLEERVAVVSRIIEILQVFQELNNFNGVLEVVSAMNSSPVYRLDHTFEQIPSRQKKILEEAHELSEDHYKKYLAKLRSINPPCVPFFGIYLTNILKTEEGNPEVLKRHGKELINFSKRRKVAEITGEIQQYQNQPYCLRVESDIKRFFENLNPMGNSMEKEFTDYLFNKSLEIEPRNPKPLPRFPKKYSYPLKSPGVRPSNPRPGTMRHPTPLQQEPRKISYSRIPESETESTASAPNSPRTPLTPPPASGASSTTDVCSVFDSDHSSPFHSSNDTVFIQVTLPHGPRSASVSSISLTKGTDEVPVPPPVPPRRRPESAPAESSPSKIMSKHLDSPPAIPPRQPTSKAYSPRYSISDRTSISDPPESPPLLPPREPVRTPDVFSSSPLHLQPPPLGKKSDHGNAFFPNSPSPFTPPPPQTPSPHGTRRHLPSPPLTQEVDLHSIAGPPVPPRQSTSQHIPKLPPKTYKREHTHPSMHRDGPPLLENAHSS
Briefly: Inhibition of N-terminal His10-tagged wild-type recombinant human SOS1 catalytic domain (564 to 1049 residues) expressed in Escherichia coli assessed as reduction in wild-type KRAS activation preincubated for 10 mins with KRAS followed by SOS1 addition measured after 30 mins in presence of EDA-GTP-DY-647P1 by HTRF analysis.

In assay [2] the target is Casein kinase I isoform gamma-2 (Homo sapiens) (UniProt P78368). Briefly: Inhibition of CSNK1G2 (unknown origin) assessed as residual activity at 100 nM by KINOMEscan analysis relative to control.
Chain of Casein kinase I isoform gamma-2 (Homo sapiens) (P78368 whole entry, looked up, canonical isoform): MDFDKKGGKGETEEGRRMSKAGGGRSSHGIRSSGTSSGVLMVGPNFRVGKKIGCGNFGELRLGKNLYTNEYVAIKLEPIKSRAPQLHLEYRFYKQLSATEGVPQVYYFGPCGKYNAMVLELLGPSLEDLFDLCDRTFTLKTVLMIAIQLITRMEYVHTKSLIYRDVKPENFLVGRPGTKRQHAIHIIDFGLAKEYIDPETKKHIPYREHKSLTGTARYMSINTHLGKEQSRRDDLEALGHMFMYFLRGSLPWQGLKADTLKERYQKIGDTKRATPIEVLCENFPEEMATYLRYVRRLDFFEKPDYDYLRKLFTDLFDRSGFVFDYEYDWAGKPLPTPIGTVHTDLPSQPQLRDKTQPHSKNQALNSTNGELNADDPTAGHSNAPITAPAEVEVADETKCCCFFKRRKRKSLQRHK
Assay [3] has as its target Proto-oncogene tyrosine-protein kinase ROS (Homo sapiens) (UniProt P08922). Briefly: Inhibition of ROS1 (unknown origin) assessed as residual activity at 100 nM by KINOMEscan analysis relative to control.
The target in assay [4] is Ribosomal protein S6 kinase alpha-5 (Homo sapiens) (UniProt O75582). In words: Inhibition of N-terminal RPS6KA5 kinetic domain 1 (unknown origin) assessed as residual activity at 100 nM by KINOMEscan analysis relative to control.
Chain of Ribosomal protein S6 kinase alpha-5 (Homo sapiens) (O75582 whole entry, looked up, the tested form may be a part): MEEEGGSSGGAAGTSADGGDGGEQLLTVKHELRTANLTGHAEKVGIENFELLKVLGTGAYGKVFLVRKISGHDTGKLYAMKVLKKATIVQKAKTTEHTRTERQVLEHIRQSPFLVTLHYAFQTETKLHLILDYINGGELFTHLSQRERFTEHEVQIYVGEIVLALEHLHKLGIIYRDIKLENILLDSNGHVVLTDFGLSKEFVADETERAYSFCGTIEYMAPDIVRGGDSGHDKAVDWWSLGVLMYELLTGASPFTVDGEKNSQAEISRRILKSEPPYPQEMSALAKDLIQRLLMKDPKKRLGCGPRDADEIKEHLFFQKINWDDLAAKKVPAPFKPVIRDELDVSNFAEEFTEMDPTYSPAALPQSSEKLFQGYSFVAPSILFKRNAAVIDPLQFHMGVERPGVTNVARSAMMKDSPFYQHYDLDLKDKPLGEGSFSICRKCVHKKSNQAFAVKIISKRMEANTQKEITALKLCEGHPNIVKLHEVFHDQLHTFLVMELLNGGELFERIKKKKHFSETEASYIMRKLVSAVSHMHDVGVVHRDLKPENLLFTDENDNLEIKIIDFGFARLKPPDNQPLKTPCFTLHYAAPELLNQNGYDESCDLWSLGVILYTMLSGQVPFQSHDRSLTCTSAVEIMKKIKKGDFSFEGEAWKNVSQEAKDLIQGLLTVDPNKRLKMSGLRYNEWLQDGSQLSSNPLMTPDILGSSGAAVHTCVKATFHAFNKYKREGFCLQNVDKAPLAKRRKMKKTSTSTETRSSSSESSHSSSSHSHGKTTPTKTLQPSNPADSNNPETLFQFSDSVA
In assay [5] the target is T2, Serine/threonine-protein kinase TAO2 (Homo sapiens) (UniProt Q9UL54).
T2 sequence (whole entry): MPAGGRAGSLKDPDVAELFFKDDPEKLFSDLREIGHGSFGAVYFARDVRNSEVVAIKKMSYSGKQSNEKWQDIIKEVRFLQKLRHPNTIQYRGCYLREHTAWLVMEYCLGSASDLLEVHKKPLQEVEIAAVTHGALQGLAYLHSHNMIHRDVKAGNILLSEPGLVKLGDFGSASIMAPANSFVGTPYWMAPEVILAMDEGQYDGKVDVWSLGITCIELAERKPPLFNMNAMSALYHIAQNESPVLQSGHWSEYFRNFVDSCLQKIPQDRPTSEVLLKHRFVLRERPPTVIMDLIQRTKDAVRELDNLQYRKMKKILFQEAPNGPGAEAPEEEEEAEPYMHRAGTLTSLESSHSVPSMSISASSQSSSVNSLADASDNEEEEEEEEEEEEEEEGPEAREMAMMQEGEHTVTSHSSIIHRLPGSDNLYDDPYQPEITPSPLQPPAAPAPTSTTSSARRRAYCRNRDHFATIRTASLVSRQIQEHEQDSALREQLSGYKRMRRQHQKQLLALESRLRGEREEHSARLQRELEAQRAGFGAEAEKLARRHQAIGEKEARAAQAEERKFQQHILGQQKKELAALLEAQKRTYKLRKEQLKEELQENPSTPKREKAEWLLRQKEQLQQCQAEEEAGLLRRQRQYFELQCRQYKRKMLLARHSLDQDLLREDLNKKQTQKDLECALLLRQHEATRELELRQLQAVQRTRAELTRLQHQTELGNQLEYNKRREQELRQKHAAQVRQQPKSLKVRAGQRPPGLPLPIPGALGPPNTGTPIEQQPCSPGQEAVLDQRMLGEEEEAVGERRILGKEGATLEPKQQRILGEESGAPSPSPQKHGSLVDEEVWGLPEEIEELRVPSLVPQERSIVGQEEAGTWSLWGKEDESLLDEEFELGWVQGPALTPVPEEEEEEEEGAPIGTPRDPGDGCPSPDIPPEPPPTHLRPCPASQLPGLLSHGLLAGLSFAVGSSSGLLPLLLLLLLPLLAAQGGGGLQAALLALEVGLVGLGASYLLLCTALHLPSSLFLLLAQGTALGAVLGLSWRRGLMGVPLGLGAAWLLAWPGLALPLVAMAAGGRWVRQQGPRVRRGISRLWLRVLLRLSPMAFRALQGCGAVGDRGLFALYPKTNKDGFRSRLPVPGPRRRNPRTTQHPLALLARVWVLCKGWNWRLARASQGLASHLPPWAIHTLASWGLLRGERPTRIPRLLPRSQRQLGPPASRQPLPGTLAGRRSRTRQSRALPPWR
In words: Inhibition of TAOK2 (unknown origin) assessed as residual activity at 100 nM by KINOMEscan analysis relative to control.

Chain of Proto-oncogene tyrosine-protein kinase ROS (Homo sapiens) (P08922 whole entry, the tested form may be a part): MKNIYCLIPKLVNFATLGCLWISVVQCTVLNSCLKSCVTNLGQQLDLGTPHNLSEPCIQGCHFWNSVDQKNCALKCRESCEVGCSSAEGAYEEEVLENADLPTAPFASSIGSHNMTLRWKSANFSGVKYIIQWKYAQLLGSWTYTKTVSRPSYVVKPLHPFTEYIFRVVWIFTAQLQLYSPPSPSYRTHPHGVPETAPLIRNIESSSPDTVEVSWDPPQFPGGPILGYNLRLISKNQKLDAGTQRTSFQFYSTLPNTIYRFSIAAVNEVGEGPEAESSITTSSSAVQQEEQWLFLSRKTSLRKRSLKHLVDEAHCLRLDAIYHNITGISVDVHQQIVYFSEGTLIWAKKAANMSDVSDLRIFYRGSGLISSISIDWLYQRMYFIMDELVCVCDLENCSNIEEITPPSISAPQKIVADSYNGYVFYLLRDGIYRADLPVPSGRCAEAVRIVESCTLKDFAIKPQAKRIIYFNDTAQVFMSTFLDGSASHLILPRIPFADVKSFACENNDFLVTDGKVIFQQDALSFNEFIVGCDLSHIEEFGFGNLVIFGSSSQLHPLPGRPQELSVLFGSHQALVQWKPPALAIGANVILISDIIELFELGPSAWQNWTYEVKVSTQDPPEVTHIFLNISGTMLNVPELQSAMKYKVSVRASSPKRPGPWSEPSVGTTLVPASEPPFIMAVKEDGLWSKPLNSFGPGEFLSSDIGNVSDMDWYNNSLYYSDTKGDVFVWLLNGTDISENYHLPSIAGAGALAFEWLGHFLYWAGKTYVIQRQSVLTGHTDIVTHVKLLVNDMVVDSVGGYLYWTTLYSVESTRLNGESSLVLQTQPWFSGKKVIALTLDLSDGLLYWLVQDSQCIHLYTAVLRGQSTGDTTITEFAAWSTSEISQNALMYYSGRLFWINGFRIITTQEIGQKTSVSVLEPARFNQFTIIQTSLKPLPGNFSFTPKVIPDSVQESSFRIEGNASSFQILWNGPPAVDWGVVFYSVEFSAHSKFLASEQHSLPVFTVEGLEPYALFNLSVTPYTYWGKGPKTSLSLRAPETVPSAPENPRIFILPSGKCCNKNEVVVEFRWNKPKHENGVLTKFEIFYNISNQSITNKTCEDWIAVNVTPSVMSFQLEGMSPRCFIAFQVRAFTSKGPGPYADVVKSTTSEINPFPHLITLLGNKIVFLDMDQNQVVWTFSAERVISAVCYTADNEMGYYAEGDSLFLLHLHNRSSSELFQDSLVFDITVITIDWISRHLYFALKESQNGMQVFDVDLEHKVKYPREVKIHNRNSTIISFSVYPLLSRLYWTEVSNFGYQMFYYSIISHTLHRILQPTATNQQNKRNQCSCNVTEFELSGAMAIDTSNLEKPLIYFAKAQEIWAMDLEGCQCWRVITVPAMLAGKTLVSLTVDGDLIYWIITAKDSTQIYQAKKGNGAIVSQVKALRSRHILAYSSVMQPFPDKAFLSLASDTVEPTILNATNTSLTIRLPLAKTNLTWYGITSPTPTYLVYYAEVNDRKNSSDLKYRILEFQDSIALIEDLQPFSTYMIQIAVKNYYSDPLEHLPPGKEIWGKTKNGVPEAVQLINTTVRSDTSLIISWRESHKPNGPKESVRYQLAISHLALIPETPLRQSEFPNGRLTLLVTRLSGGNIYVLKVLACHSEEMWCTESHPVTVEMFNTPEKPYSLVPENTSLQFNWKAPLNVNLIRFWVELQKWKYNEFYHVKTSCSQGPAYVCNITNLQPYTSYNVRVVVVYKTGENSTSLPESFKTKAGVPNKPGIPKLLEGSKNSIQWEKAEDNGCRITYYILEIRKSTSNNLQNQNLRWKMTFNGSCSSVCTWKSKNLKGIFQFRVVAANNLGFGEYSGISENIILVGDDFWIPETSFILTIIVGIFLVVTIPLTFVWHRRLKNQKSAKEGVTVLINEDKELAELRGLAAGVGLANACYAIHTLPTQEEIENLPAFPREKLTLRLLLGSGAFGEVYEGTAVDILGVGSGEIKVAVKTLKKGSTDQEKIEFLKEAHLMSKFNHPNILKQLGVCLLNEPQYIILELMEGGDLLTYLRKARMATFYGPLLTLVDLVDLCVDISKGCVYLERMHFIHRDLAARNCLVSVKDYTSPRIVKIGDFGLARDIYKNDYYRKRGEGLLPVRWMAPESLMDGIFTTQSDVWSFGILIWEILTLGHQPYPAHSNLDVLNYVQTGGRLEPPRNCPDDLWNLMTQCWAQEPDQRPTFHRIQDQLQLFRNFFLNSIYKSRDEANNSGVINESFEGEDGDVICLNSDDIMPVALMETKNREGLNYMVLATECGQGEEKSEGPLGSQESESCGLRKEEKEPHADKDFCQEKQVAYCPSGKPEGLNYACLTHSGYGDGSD

Turning to `COc1cc2nc(C)nc(NC(C)c3ccc(-c4cnc5n4CCC5)s3)c2cc1OC` (stereo not given), the half-inhibitory concentration (IC50) in assay [1] was 550 nM.
`COc1cc2ncnc(N[C@H](C)c3cccc4ccccc34)c2cc1OC`: the Activity was found to be 91% in assay [2], 100% in assay [3], 93% in assay [4] and 94% in assay [5].

In general, IC50 refers to the concentration at which inhibition is half-maximal.

These data come from ChEMBL document CHEMBL5678818, “Discovery of potent SOS1 inhibitors that block RAS activation via disruption of the RAS-SOS1 interaction” (Proc Natl Acad Sci U S A, 2019).
